Literature values, collected in publication PMC8623647 (Pharmaceuticals, 2021).

Test system: MAO-B
Design: method as in PMID 30915862
Details: study of Shalaby et al. ref 25; cited from earlier work

CSc1ccc(C(=O)/C=C/c2cccc(Br)c2)cc1 [(E)-3-(3-bromophenyl)-1-(4-(methylthio)phenyl)prop-2-en-1-one]
IC50: 190 ± 10 nM
